Laboratory results as given in patent US8119168B2, “Personal care compositions comprising a zinc containing material in an aqueous surfactant composition” (The Procter & Gamble Company, priority 2002, dated 2012).

test: Zincon metallochromic dye test for available Zn^2+ (visual color change orange to blue); type: physicochemical; details: ZCM ~30 mg/10 ml water, pH 7-11, binary visual assessment
Source text: Zinc-containing materials (ZCMs) differ with respect to how strongly the zinc ion (Zn^2+) is held by counterions in the crystal lattice. The benefits discussed herein depend upon having available Zn^2+. […] The response is a binary visual assessment of whether or not the color changes indicating zinc-binding.
The method is based on the commercial metallochromic dye zincon. Zincon changes from an orange color to blue upon binding zinc and provides the basis for detecting available Zn^2+:
The specific procedure involves making a stock solution of zincon in ethanol (˜50 mg/10 ml ethanol). The ZCM is then added to water (˜30 mg/10 ml water) and agitated (pH range should be 7-11). Three to four drops of zincon solution are then added to the ZCM in water, agitated and a visual assessment of color change made.

Row | Compound | available Zn^2+ (zincon color change)
1 | O=C([O-])C(=O)[O-].[Zn+2] [zinc oxalate] | have available zinc
2 | zinc hexaborate | have available zinc
3 | zinc phytate | not having available Zn^2+
4 | OCC(O)CO.[Zn] [zinc monoglycerolate] | have available zinc
5 | zinc histadine | have available zinc
6 | O=C([O-])CN(CCN(CC(=O)[O-])CC(=O)[O-])CC(=O)[O-].[Na+].[Na+].[Zn+2] [zinc EDTA] | not having available Zn^2+
7 | [Cl-].[Cl-].[Zn+2] [zinc chloride] | have available zinc
8 | [OH-].[OH-].[Zn+2] [zinc hydroxide] | have available zinc
9 | CC(=O)[O-].CC(=O)[O-].[Zn+2] [zinc acetate] | have available zinc
10 | N=C(N)NCCC[C@H](N)C(=O)O.[Zn] [zinc arginine] | have available zinc
11 | O=S(=O)([O-])[O-].[Zn+2] [zinc sulfate] | have available zinc
12 | O=C([O-])CC(O)(CC(=O)[O-])C(=O)[O-].O=C([O-])CC(O)(CC(=O)[O-])C(=O)[O-].[Zn+2].[Zn+2].[Zn+2] [zinc citrate] | have available zinc
13 | CC(O)C(=O)[O-].CC(O)C(=O)[O-].[Zn+2] (stereo not drawn) [zinc lactate] | have available zinc
14 | zinc stearate | have available zinc
15 | [O]=[Zn] [Zinc Oxide] | have available zinc

test: Relative zinc lability by xylenol orange (XO) color change, absorbance at 572 nm; type: physicochemical; details: 6% sodium lauryl sulfate
Description: Zinc lability is a measure of the chemical availability of zinc ion. […] The use of partially soluble forms of zinc salts and/or incorporation in a matrix with potential complexants generally lowers the zinc lability substantially below the defined 100% maximum.
Zinc lability is assessed by combining a diluted zinc-containing solution or dispersion with the metallochromic dye xylenol orange (XO) and measurement of the degree of color change under specified conditions. The magnitude of color formation is proportional to the level of labile zinc. The procedure developed has been optimized for aqueous surfactant formulations but may be adapted to other physical product forms as well.
A spectrophotometer is used to quantify the color change at 572 nm, the wavelength of optimum color change for XO. The spectrophotometer is set to zero absorbance at 572 nm utilizing a product control as close in composition to the test product except excluding the potentially labile form of zinc. The control and test products are then treated identically as follows. A 50 μl product sample is dispensed into a jar and 95 ml of deaerated, distilled water are added and stirred. 5 mL of a 23 mg/mL xylenol orange stock solution at pH 5.0 is pipetted into the sample jar; this is considered time 0. The pH is then adjusted to 5.50±0.01 using dilute HCl or NaOH. After 10.0 minutes, a portion of the sample is filtered (0.45μ) and the absorbance measured at 572 nm. The measured absorbance is then compared to a separately measured control to determine the relative zinc lability (zero TO 100%). The 100% lability control is prepared in a matrix similar to the test products but utilizing a soluble zinc material (such as zinc sulfate) incorporated at an equivalent level on a zinc basis. The absorbance of the 100% lability control is measured as above for the test materials.

Row | Compound | Relative Zinc Lability (%) Simple Surfactant System Alone [%]
16 | O=C([O-])[O-].O=C([O-])[O-].[OH-].[OH-].[OH-].[OH-].[OH-].[OH-].[Zn+2].[Zn+2].[Zn+2].[Zn+2].[Zn+2] [Hydrozincite] | 37.0
17 | [O]=[Zn] [Zinc Oxide] | 1.5

same assay, conditions: 6% sodium lauryl sulfate plus sodium bicarbonate at 0.2% level

Row | Compound | Relative Zinc Lability (%) Simple Surfactant System Plus Sodium Bicarbonate [%]
18 | [O]=[Zn] [Zinc Oxide] | 33.2
